# Experiments:
# bovine PDE1 = assay: PDE1 enzyme assay; type: biochemical; conditions: from PDE inhibition data of Table 1
# [1] = target: PDE3 from human platelets (Homo sapiens, UniProt Q14432); assay: PDE3 enzyme assay; type: biochemical; conditions: from PDE inhibition data of Table 1
# [2] = target: PDE5 from human platelets (Homo sapiens, UniProt O76074); assay: PDE5 enzyme assay; type: biochemical; conditions: from PDE inhibition data of Table 1
# [3] = target: T1, PDE6 from bovine retinal rod outer segments (Bos taurus, UniProt P11541+P23439); assay: PDE6 enzyme assay; type: biochemical; conditions: from PDE inhibition data of Table 1
# T1 construct: PDE6 from bovine retinal rod outer segments; from tissue; host or cells: bovine retinal rod outer segments
# T1 sequence (P11541 2-856 limits assumed): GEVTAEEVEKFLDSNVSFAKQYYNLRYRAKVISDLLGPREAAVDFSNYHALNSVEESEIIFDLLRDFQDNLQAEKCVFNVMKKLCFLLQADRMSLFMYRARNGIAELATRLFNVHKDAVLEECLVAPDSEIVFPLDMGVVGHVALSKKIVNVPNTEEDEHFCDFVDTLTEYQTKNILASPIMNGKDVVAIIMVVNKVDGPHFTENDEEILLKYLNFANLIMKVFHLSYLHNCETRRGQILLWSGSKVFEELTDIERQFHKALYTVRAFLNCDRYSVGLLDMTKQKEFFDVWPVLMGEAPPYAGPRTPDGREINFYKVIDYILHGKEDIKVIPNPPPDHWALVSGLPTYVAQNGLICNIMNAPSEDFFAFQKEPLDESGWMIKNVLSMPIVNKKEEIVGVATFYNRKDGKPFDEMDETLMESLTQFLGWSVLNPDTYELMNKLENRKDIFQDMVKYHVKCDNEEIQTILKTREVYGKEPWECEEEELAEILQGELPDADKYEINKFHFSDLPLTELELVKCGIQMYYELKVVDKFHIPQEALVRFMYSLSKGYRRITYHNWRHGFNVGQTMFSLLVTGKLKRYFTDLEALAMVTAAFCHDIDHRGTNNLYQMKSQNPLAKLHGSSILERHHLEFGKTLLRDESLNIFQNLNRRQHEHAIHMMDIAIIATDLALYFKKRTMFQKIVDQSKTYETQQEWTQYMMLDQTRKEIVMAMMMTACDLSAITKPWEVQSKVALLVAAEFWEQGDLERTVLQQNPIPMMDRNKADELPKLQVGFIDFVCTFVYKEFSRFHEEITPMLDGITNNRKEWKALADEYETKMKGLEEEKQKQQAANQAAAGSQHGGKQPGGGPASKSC
# T1 sequence (P23439 2-850 limits assumed): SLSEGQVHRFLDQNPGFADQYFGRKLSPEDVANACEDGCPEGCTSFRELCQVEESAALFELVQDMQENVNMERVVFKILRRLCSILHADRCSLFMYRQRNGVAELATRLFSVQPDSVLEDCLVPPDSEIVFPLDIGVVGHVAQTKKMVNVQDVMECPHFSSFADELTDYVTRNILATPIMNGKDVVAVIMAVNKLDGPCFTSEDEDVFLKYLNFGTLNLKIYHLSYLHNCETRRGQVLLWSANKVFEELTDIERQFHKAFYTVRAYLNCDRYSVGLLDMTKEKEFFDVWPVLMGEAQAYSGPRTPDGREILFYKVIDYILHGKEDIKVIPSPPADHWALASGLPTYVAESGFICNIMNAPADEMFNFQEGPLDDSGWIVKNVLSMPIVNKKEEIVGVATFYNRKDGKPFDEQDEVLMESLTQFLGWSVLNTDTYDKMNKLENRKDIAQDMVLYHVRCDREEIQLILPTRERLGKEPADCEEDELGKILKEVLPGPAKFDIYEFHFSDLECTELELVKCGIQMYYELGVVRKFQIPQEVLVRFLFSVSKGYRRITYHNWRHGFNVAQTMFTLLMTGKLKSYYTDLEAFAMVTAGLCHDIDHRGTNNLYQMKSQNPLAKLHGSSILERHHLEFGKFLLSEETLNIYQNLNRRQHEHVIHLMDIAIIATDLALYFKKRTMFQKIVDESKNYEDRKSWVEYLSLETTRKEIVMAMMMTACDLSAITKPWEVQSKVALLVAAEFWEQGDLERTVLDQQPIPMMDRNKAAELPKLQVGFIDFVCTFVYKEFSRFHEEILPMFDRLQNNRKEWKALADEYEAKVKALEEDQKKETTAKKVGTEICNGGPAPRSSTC
# [4] = Equilibrium aqueous solubility in pH 7.4 buffer; type: physicochemical
# Experimental: Equilibrium solubilities were measured in pH 7.4 aqueous buffer. The pH 7.4 buffer was prepared by adjusting the pH of a 0.07 M NaH2PO4 solution to 7.4 with 10 N NaOH. The ionic strength of the solution was 0.15. At least 1 mg of powder was combined with 1 ml of buffer to make >1 mg/ml mixture. These samples were shaken for >2 hours and left to stand overnight at room temperature. The samples were then filtered through a 0.45-µm Nylon syringe filter that was first saturated with the sample. The filtrate was sampled twice, consecutively. The filtrate was assayed by HPLC against standards prepared in 50% methanol.
# [5] = tested on: subjects with moderate to severe plaque-type psoriasis; assay: Phase 2 randomized double-blind placebo-controlled study in moderate to severe plaque-type psoriasis; type: in vivo, human
# Experimental: This phase 2, multicenter, randomized, double-blind, placebo-controlled, parallel-group, dose-comparison study evaluated the efficacy and safety of Compound A in subjects with moderate to severe plaque-type psoriasis who were candidates for systemic therapy.
# This study included a 12-week treatment phase followed by a 4-week observational follow-up phase. A total of 260 subjects were randomized to receive Compound A 20 mg BID, Compound A 20 mg QD, or placebo for 12 weeks. The primary endpoint for this study was the proportion of subjects treated with Compound A who achieved a 75% reduction in Psoriasis Area and Severity Index score ("PASI-75") at week 12/last treatment in reference to the baseline visit. Last treatment is defined as the last PASI assessment completed during the 12-week treatment phase.
# [6] = tested on: patients with severe plaque-type psoriasis
# [7] = 20 mg orally daily, number of patients
# [8] = responders (≥ 20% epidermal thickness reduction), 8 patients, Day 29
# Chain of PDE3 from human platelets (Q14432 whole entry): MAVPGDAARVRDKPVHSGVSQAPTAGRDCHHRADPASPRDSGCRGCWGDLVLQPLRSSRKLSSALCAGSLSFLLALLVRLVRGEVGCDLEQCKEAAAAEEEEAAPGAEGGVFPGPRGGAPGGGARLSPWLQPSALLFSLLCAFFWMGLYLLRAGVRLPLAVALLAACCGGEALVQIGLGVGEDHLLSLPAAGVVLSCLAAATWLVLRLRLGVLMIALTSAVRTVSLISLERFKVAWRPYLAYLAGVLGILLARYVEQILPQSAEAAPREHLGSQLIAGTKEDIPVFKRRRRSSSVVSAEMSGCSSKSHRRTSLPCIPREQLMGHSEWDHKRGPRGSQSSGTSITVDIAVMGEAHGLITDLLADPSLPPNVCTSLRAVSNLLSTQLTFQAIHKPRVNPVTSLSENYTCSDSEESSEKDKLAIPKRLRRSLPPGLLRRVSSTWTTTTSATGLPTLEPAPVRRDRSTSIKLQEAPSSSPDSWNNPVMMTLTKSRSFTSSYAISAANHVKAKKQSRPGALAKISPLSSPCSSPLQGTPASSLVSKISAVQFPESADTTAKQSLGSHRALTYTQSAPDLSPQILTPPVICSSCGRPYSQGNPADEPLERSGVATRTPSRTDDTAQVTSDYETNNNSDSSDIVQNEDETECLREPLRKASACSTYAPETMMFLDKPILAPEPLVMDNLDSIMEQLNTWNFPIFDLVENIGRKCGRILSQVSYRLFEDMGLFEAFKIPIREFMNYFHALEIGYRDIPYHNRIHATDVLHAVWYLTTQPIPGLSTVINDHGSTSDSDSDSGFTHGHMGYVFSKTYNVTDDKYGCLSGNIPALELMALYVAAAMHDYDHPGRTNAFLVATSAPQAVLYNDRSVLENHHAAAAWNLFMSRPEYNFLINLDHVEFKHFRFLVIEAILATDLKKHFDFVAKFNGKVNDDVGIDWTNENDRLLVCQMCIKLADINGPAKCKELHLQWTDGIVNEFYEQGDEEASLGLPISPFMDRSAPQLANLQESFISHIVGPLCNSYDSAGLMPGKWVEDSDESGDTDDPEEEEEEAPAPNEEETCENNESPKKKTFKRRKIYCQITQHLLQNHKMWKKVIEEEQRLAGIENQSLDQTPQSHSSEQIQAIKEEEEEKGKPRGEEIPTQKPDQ
smiles,measurement,setting,value
"CCOc1cc(C(CS(C)(=O)=O)N2C(=O)c3cccc(NC(C)=O)c3C2=O)ccc1OC (single isomer, unassigned; (+)) [Compound A, (+)-2-[1-(3-ethoxy-4-methoxyphenyl)-2-methylsulfonylethyl]-4-acetylaminoisoindoline-1,3-dione]",PDE Specificity Ratio PDE4/PDE1,bovine PDE1,>500 fold
same,PDE Specificity Ratio PDE4/PDE3,[1],>1200 fold
same,PDE Specificity Ratio PDE4/PDE5,[2],>30000 fold
same,PDE Specificity Ratio PDE4/PDE6,[3],>40000 fold
same,aqueous solubility greater than the racemic mixture,[4],3.5 fold
same,psoriasis flare during the observational follow-up period,"[5]; 20 mg BID group, 4-week follow-up",No subjects
same,study drug-related serious adverse events,"[5]; 20 mg BID or 20 mg QD, 12 weeks",No study drug-related serious adverse events were reported
same,tolerability and safety (overall conclusion),[5]; 12 weeks of treatment,well tolerated and safe
same,patients with abnormal HLA-DR that had normal HLA-DR at Day 29,[6]; [7],Two
same,patients with abnormal ICAM-1 at baseline that had normal ICAM-1 at Day 29,[6]; [7],Three
same,patients with abnormal K16 at baseline that had normal K16 at Day 29,[6]; [7],one
same,patients with abnormal fillagrin at baseline that had normal fillagrin at Day 29,[6]; [7],three
same,safety (overall conclusion),[6]; 20 mg p.o. QD for 29 days,safe
same,"Percentage Reduction of Key Inflammatory Markers at Day 29: CD11c, Dermis","[6]; Responder, signed change",-18.50%
same,"Percentage Reduction of Key Inflammatory Markers at Day 29: CD11c, Epidermis","[6]; Responder, signed change",-40.16%
same,"Percentage Reduction of Key Inflammatory Markers at Day 29: CD83+, Dermis","[6]; Responder, signed change",-25.86%
same,"Percentage Reduction of Key Inflammatory Markers at Day 29: CD83+, Epidermis","[6]; Responder, signed change",-32.50%
same,"Percentage Reduction of Key Inflammatory Markers at Day 29: T-cells, Dermis","[6]; Responder, signed change",-28.79%
same,"Percentage Reduction of Key Inflammatory Markers at Day 29: T-cells, Epidermis","[6]; Responder, signed change",-42.56%
same,decrease of dermal T-cells,[6]; [8],28.79%
same,decrease of epidermal T-cells,[6]; [8],42.56%
same,CD11c cells reduced in the dermis,"[6]; responders, Day 29",18.50%
same,CD11c cells reduced in the epidermis,"[6]; responders, Day 29",40.16%
same,Mean reduction from baseline in dermal CD83+ cells,"[6]; responders, Day 29",25.86%
same,Mean reduction from baseline in epidermal CD83+ cells,"[6]; responders, Day 29",32.50%
same,deaths,[6]; treatment and follow-up phases,No deaths were reported
